Measured values as given in US20060067924A1, “Probiotic bacteria and methods” (priority 2003, published 2006).
Entries after “also recorded” stand apart in the source; their conditions may differ.

Legend:
[1] = tested on: bacterial flora of the chicken ileum; experiment: 16S rDNA clone library analysis of the ileal bacterial community of chickens fed diets with feed additives; type: in vivo
[2] = tested on: bacterial community of the chicken ileum; experiment: T-RFLP analysis (HaeIII) of amplified 16S rDNA from the ileum of chickens fed different diets; type: in vivo; settings: for main bacterial composition present in TRFLP peaks in ileum: names in order of relative abundance of peaks; for Clostridiales, % peak areas / Lactobacillaceae, % peak areas: T-RFLP
Protocol: A comparative study of bacterial community of the chicken ileum was carried out using 16S rDNA gene analysis. The intestinal microbiota is part of a complex ecosystem. This study examined the effect of the growth promoting antibiotic, virginiamycin, and other commercial diets on the distribution and community structure of intestinal bacterial flora. Bacterial communities in the intestines of chickens were compared using terminal restriction fragment length polymorphism (T-RFLP) analysis targeting the 16S ribosomal DNA combining with 16S rDNA cloning library. The chickens were fed 4 different diets including a commercial corn-soy diet, corn-soy plus growth promotant diet, corn-soy plus monensin, and a wheat diet. A group was also administrated a probiotic at 1 day age and fed a corn-soy diet. After feeding of the birds with the experimental diets, the differences in the bacterial community structures in the ileum were detected in the form of different profiles of terminal restriction fragments (T-RFs). Some of the T-RFs were commonly distributed, i.e., they were found in all samples, while others varied in distribution and correlated with specific diets. Significant differences were found between the control group (corn-soy diet) and the experimental groups by pairwise-analyzing the T-RFs=profiles.
The bacterial populations are identified using genetic analysis of the 16S RNA gene by GeneScan-Terminal Restriction Fragment Length Polymorphism (T-RFLP) using 16S universal primers and cloning and DNA sequencing of 16S PCR products. GeneScan T-RFLP requires the following steps: labeling the PCR product by using labeled primers; digesting the PCR product with restriction enzymes; separating fragments on gel; and detecting terminal fragments. The sizes of terminal fragments can be calculated based on DNA sequence analysis.
In some experiments, the PCR products were loaded onto a gel from which bands were cut and eluted in 35 μl of sterile filtered distilled water using a QIAquick gel extraction kit (Qiagen, Chatsworth, Calif.). The concentrations of the fluorescently labeled PCR products were measured on a spectrophotometer (DU Series 500, Beckman, Fullerton, Calif.). About 100 ng of purified PCR products was digested in a 10 μl volume for 4 hours at 37 C with 10 U of HaeIII (isoschizomer BsuRI; Fermentas, MBI). Restriction digests were desalted with the QIAquick Nucleotide Removal Kit (Qiagen). The fluorescently labeled terminal restriction fragments (T-RFs) were analyzed by electrophoresis on an automatic sequence analyzer (ABI PRISM 310 DNA Sequencer; PE Biosystems, Foster City, Calif.) in GeneScan mode. Aliquots (2 ul) of T-RFs were mixed with 2 μl of deionized formamide, 0.5 μl of DNA fragment length size standard GS-500 (PE Biosystems). The T-RF mixture was denatured at 94° C. for 5 min and immediately chilled on ice prior to electrophoresis. After electrophoresis, the lengths of fluorescently labeled T-RFs were determined by comparison with internal standards by using GeneScan software (ABI). For each sample, peaks over a threshold of 50 units above background fluorescence were analyzed by manually aligning fragments to the size standard. To avoid detection of primers and uncertainties of size determination, terminal fragments smaller than 35 bp and larger than 525 bp were excluded from the analysis. Reproducibility of patterns was confirmed for repeated T-RFLP analysis of 16S gene amplification using the same DNA extracts from pooled samples.
The information index (Shannon and Weaver (1963) “The Mathematical Theory of Communication,” p. 117, University of Illinois Press, Urbana, Ill.) was used to initially evaluate the diversity of the microbial communities. [formula] Where n is possible categories in a data set and that their proportions are pi, . . . , pn. The H values are the measure of diversity for this system. […]

[3] = tested on: cecum flora; experiment: 16S rDNA clone library analysis of the cecum flora, monensin treatment; type: in vivo, chicken; settings: 28 d
[4] = tested on: Lachnospira multiparus-like organisms; settings: monensin supplementation; cited from earlier work
[5] = pigs, 50 ppm, compared to controls; cited from earlier work
[6] = ileum, 7 days of age, 16S rDNA clone library
[7] = ileum, 28 days of age, 16S rDNA clone library
[8] = vs control fed the same feed without the antibiotic

Compound: CC[C@@]1([C@@H]2O[C@@H]([C@H]3O[C@@](O)(CO)[C@H](C)C[C@@H]3C)C[C@@H]2C)CC[C@H]([C@]2(C)CC[C@]3(C[C@H](O)[C@@H](C)[C@@H]([C@@H](C)[C@@H](OC)[C@H](C)C(=O)O)O3)O2)O1 [Monensin, monensin]
- ileum flora: Clostridium spp. ([1]; 3 d): 1 [17] %
- ileum flora: L. crispatus ([1]; 3 d): 1 [4] %
- ileum flora: L. salivarius ([1]; 3 d): 1%
- ileum: Clostridiaceae ([1]; 3 d): 2 [17] %
- ileum: Enterococcus ([1]; 3 d): 9 [3] %
- ileum: Lactobacillus spp. ([1]; 3 d): 3 [60] %
- ileum: α-Proteobacteria ([1]; 3 d): 1 [1] %
- ileum: β-Proteobacteria ([1]; 3 d): 3 [5] %
- ileum: δ-Probeobacteria ([1]; 3 d): 82 [2] %
- ileum flora: C. irregularis ([1]; 7 d): 45%
- ileum flora: C. lituseburense ([1]; 7 d): 24%
- ileum flora: Clostridium spp. ([1]; 7 d): 13 [1] %
- ileum flora: L. acidophilus ([1]; 7 d): 4 [57] %
- ileum flora: L. crispatus ([1]; 7 d): 4 [1] %
- ileum flora: L. reuteri ([1]; 7 d): 3%
- ileum: Clostridiaceae ([1]; 7 d): 84 [1] %
- ileum: Enterococcus ([1]; 7 d): 3 [16] %
- ileum: Lactobacillus spp. ([1]; 7 d): 11 [64] %
- ileum flora: C. lituseburense ([1]; 14 d): 31%
- ileum flora: L. crispatus ([1]; 14 d): 17 [8] %
- ileum: Bifidobacter ([1]; 14 d): 2%
- ileum: Clostridiaceae ([1]; 14 d): 44 [7] %
- ileum: Enterococcus ([1]; 14 d): 33 [13] %
- ileum: Lactobacillus spp. ([1]; 14 d): 21 [64] %
- ileum flora: C. irregularis ([1]; 21 d): 19%
- ileum flora: C. lituseburense ([1]; 21 d): 22%
- ileum flora: L. crispatus ([1]; 21 d): 19 [3] %
- ileum flora: L. salivarius ([1]; 21 d): 7 [5] %
- ileum: Bacteroides ([1]; 21 d): 2 [3] %
- ileum: Clostridiaceae ([1]; 21 d): 47 [9] %
- ileum: Enterococcus ([1]; 21 d): 11 [3] %
- ileum: Lactobacillus spp. ([1]; 21 d): 27 [66] %
- ileum flora: C. irregularis ([1]; 28 d): 53%
- ileum flora: C. lituseburense ([1]; 28 d): 7%
- ileum flora: Clostridium spp. ([1]; 28 d): 1 [6] %
- ileum flora: L. crispatus ([1]; 28 d): 17 [75] %
- ileum flora: L. reuteri ([1]; 28 d): 11 [7] %
- ileum flora: L. salivarius ([1]; 28 d): 2 [2] %
- ileum: Bacillus ([1]; 28 d): 1%
- ileum: Clostridiaceae ([1]; 28 d): 62 [7] %
- ileum: Enterococcus ([1]; 28 d): 1 [3] %
- ileum: Lactobacillus spp. ([1]; 28 d): 32 [88] %
- ileum: Streptococcus ([1]; 28 d): 1 [1] %
- ileum flora: C. irregularis ([1]; 49 d): 3%
- ileum flora: C. lituseburense ([1]; 49 d): 42%
- ileum flora: Clostridium spp. ([1]; 49 d): 1 [19] %
- ileum flora: L. aviaries ([1]; 49 d): 16%
- ileum flora: L. crispatus ([1]; 49 d): 20 [36] %
- ileum flora: L. reuteri ([1]; 49 d): 5 [1] %
- ileum flora: L. salivarius ([1]; 49 d): 3 [28] %
- ileum: Bacillus ([1]; 49 d): 5 [4] %
- ileum: Bacteroides ([1]; 49 d): 1 [1] %
- ileum: Clostridiaceae ([1]; 49 d): 46 [19] %
- ileum: Enterococcus ([1]; 49 d): 5 [2] %
- ileum: Lactobacillus spp. ([1]; 49 d): 45 [70] %
- ileum: Streptococcus ([1]; 49 d): 5%
- Clostridiales, % of seq [1, 6]: 82.4%
- Enterococcus/Streptococcus, % of seq [1, 6]: 2.7%
- Lactobacillaceae, % of seq [1, 6]: 12.9%
- Proteobacteria α, % of seq [1, 6]: 1.35%
- Bacillaceae, % of seq [1, 7]: 1.05%
- Clostridiales, % of seq [1, 7]: 63.2%
- Enterococcus/Streptococcus, % of seq [1, 7]: 2.1%
- Lactobacillaceae, % of seq [1, 7]: 31.6%
- Proteobacteria α, % of seq [1, 7]: 2.1%
- clostridial sequences [1, 8]: increased
- overall numbers of Lactobacillus sequences [1, 8]: reduced
- main bacterial composition present in TRFLP peaks in ileum ([2]; 3 day): Enterococcus sp; also recorded: E. coli
- main bacterial composition present in TRFLP peaks in ileum ([2]; 7 day): C. irregularis; also recorded: C. lituseburense; also recorded: L. acidophilus
- main bacterial composition present in TRFLP peaks in ileum ([2]; 14 day): C. lituseburense; also recorded: C. irregularis; also recorded: Clostridium sp; also recorded: L. crispatus
- main bacterial composition present in TRFLP peaks in ileum ([2]; 21 day): C. irregularis; also recorded: C. lituseburense; also recorded: L. crispatus
- main bacterial composition present in TRFLP peaks in ileum ([2]; 28 day): C. irregularis; also recorded: L. crispatus; also recorded: L. reuteri
- main bacterial composition present in TRFLP peaks in ileum ([2]; 49 day): C. lituseburense; also recorded: L. crispatus
- inhibition of C. irregularis ([2]; chicken ileum): not inhibited
- Clostridiales, % peak areas ([2]; ileum, 7 days of age): 92.89%
- Lactobacillaceae, % peak areas ([2]; ileum, 7 days of age): 7.1%
- Clostridiales, % peak areas ([2]; ileum, 28 days of age): 73.2%
- Lactobacillaceae, % peak areas ([2]; ileum, 28 days of age): 27.2%
- relative peak areas of Lactobacillus ([2]; ileum, whole group (control 73.22%)): 19.25%
- cecum flora: Actinobacterium [3]: 43%
- cecum flora: Bacteroides [3]: 1%
- cecum flora: Clostridium spp. [3]: 27%
- cecum flora: Eubacterium [3]: 12%
- cecum flora: Lactobacillus spp. [3]: 6%
- cecum flora: Ruminococcus [3]: 10%
- decrease of relative numbers of Lachnospira multiparus-like organisms [4]: about 2 fold

Compound: virginiamycin
- Lactobacillus species in the ileum vs controls ([1]; 28 and 49 days of age): significantly fewer
- enhancement in feed conversion [5]: 7%
- improvement in growth rate [5]: 10%
